Data taken from patent publication US11098062B2, “Monocyclic and bicyclic ring system substituted carbanucleoside analogues for use as PRMT5 inhibitors” (Janssen Pharmaceutica NV, priority 2016, dated 2021).

Legend:
PRMT5-MEP50 enzyme [1] = target: T1, PRMT5-MEP50 enzyme (Homo sapiens, UniProt O14744); assay: In vitro assay 1a: PRMT5-MEP50 high throughput mass spectrometer assay (SAH formation), 10 nM enzyme; type: biochemical; details: 1 μM SAM, 0.3 μM H2A, 30° C., 60 min, averaged values, read-out: pIC50 Assay 1a (converted)
T1 construct: One virus expresses full length human PRMT5 with Flag-tag at N-terminus; Flag (N); purchased Charles River (Argenta); host or cells: insect cells (Sf9), baculovirus co-infection
T1 sequence (O14744 whole entry): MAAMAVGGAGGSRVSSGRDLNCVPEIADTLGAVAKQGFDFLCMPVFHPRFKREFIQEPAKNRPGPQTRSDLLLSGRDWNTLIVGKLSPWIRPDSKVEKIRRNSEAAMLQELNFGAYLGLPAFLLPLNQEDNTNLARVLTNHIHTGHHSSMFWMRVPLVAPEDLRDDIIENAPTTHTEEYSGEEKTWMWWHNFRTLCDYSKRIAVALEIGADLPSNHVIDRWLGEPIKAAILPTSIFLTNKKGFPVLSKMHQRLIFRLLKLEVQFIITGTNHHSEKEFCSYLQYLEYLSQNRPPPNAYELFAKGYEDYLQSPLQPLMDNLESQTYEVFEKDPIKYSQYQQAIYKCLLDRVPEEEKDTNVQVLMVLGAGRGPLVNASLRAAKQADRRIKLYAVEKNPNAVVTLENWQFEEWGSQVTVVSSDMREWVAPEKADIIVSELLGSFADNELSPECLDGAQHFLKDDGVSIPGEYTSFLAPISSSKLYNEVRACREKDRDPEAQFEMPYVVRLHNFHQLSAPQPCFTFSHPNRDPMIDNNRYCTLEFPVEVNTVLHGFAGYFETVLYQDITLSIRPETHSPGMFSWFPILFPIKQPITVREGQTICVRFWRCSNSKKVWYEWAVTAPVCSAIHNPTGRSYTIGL
T1 sequence (Q9BQA1 whole entry partner): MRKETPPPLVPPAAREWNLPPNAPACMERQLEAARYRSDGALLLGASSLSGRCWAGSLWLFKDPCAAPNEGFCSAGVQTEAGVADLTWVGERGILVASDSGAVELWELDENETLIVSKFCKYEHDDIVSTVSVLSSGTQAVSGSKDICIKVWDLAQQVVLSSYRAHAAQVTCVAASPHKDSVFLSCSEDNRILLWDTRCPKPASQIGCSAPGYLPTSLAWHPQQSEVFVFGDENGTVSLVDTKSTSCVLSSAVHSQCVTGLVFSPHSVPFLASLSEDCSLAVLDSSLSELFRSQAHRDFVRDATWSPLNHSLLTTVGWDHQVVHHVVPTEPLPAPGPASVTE
Source text: (§1) Experimental Procedures In Vitro Assay (Assay 1a and 1b)
(§2) PRMT5-MEP50 enzyme was purchased from Charles River (Argenta). The enzyme complex was produced in insect cells (Sf9) infected simultaneously with two baculoviruses. One virus expresses full length human PRMT5 with Flag-tag at N-terminus, the second virus expresses full length MEP50 with His6-TEV cleavage at N-terminus. The protein was affinity purified using anti-Flag (M2) beads eluted with 3×FLAG peptide, followed by His-Select eluted with 0.5M imidazole. Eluted protein was then dialysed against tris-buffered saline (TBS) (pH 8.0) containing 20% glycerol and 3 mM dithiothreitol (DTT).
(§3) Full-length untagged human recombinant histone H2A (residues 1-130, Genbank Accession #NM_021052, MW=14.1 kDa) expressed in E. coli was purchased from Reaction Biology Corporation, Cat #HMT-11-146. Reagents used for making reaction buffer or stopping reaction were purchased including Tris base (Sigma Cat #T-1503), NaCl (Sigma Cat #RGF-3270), MgCl2 (Sigma Cat #M0250), DTT (Invitrogen Cat #15508-013) and Formic Acid (Riedel deHaen, Cat #33015)
(§4) PRMT5 catalyzes the sequential methylations of the terminal nitrogen atoms on the guanidine groups of arginine residues within proteins using co-substrate S-adenosyl-L-methionine (AdoMet, SAM), forming mono-methyl (MMA), syrmmetric-dimethyl arginine (sDMA) and S-adenosyl-L-homocysteine (AdoHcy, SAH). The enzyme activity was determined by following the product SAH formation using high throughput mass spectrometry (Agilent Rapidfire 300 System coupled to a Sciex 4000 series QTrap® triple-quad MS/MS). The reaction buffer was 20 mM Tris-HCl, pH 8.5, 50 mM NaCl, 5 mM MgCl2 and 1 mM DTT. The reaction activity was stopped using 1% formic acid (final concentration).
(§5) The IC50 Studies were performed using eleven point dosing series made for each compound by serially diluted 1:2 in dimethyl sulfoxide (DMSO), with point 12 being a DMSO control. Compounds were first spotted to plates, and followed by addition of 2 μM SAM and 0.6 μM H2A (histone H2A) solution mixture. The same volume of enzyme solution was added to initiate the enzymatic reactions. The final concentrations of the reaction are at 1 μM SAM, 0.3 μM H2A and 10 nM enzyme (assay 1a) or or 1.25 nM enzyme (assay 1b). The reaction was incubated at 30° C. for 60 minutes (min) when 10 nM enzyme was used and for 120 min when 1.25 nM enzyme was used. Subsequently, the reaction was quenched by addition of formic acid to a final concentration of 1%. The inhibitions of SAH formation in the presence of compounds were calculated as a percentage of the control relative to the uninhibited reaction as a function of inhibitor concentration. The data were fit as follows: Y=Bottom+(Top−Bottom)/(1+10^((log IC50−X)*h))
(§6) where IC50 is the inhibitor concentration (same unit as X) at 50% inhibition and h is the Hill slope. Y is percent of inhibition, X is log of compound concentration. Bottom and Top are the plateaus in same units as Y.

[2] = system: nuclear symmetric Arginine dimethylation in A549 cells; assay: PD assay (assay 2): inhibition of nuclear symmetric Arginine dimethylation (SYM10 immunostaining) in A549 cells; type: cell-based; details: Homo sapiens, 48 h incubation, SYM10 antibody, averaged values, read-out: pIC50 Assay 2 (converted)
Experimental: Experimental Procedure PD Assay (Assay 2)
A549 cells (ATCC, Cat #CCL-185) were cultured in Dulbecco's Modified Eagle's Medium (DMEM) (Sigma, Cat #D5796), supplemented with 10% Fetal Calf Serum (FCS) (HyClone™, Cat #SV30160.03), 100 mM Sodium Pyruvate (Sigma, Cat #S8636), 200 mM L-Glutamine (Sigma, Cat #G7513) and 50 mg/mL Gentamycing (Gibco, Cat #15750-037).
Reagents used for buffers were purchased: Dulbecco's phosphate buffered saline (DPBS) without Ca/Mg (Sigma, Cat #D8537), phosphate buffered saline (PBS) 10× (Roche, Cat #11 666 789 001), Formalin solution 10% (Sigma, HT50-1-128-4L), Methanol 100% (Sigma, Cat #32213-2.5L), Triton X-100 (Acros, Cat #215680010), Bovine Serum Albumin (BSA) (Sigma, Cat #A2153), Alexa fluor 488 goat anti-rabbit antibody (Life Technologies, Cat #A11034), HCS CellMask Deep Red Stain (Life Technologies, Cat #H32721), Hoechst Stain (Life Technologies, Cat #33258), Anti-dimethyl-Arginine, sym (SYM10) antibody (Millipore, 07-412).
Cells were plated at 400 cells/40 μL/well in 384 well black μplates clear bottom (Perkin Elmer) and overnight incubated at 37° C., 5% CO2. The IC50 Studies were performed using nine point dosing series ranging from 10 μM to […] for each compound. 80 nL of the respective dilution of the compounds was added using the Labcyte POD 810 (Labcyte) reaching a final DMSO concentration of 0.2% in cell culture. After an incubation period of 48 h at 37° C. and 5% CO2, cells were fixed in 10% formalin solution for 15 min at room temperature and 20 min in ice-cold methanol, after which they were washed 3× in DPBS. Subsequently, the cells were blocked for 1 h in blocking buffer (PBS+1% BSA and 0.5% Triton X-100) and incubated overnight at 4° C. with the SYM10 antibody diluted 1/2000 in blocking buffer. The cells were washed 3× with washing buffer (PBS+0.1% Triton X-100) and incubated with the Alexa fluor 488 goat anti-rabbit antibody diluted 1/200 in blocking buffer for 1 h at room temperature. Subsequently, they were washed 3× with washing buffer and incubated for 30 min at room temperature with PBS containing a 1/5000 dilution of Hoechst Stain and a 1/5000 dilution of the HCS CellMask Deep Red Stain. After a final wash with PBS, the plates were imaged using the 10×W lens of the Opera® system (Perkin Elmer Life Sciences) using following settings (values in nm):
Low control: minimum level of symmetrically dimethylated Arginines (cells treated with reference compound at 10 μM).
High control: maximum level of symmetrically dimethylated Arginines (DMSO treated cells).
IC50 and pIC50 (−log IC50) values were calculated using the appropriate software.
The pIC50 values in the Table below are averaged values (Co. No. means compound number; n.d. means not determined).

PRMT5-MEP50 enzyme [3] = target: T1, PRMT5-MEP50 enzyme; assay: In vitro assay 1b: PRMT5-MEP50 high throughput mass spectrometer assay (SAH formation), 1.25 nM enzyme; type: biochemical
Source text: as §1, §2, §3, §4, §5, §6

MCL xenograft models = details: multiple MCL xenograft models; cited from earlier work
PRMT5 = PRMT5 (Homo sapiens, UniProt O14744); details: background statement; cited from earlier work
Sequence of PRMT5 (O14744 whole entry, species assumed): as the sequence (O14744 whole entry) above
Sequence of PRMT5 (Q9BQA1 whole entry partner, species assumed): as the sequence (Q9BQA1 whole entry partner) above

[4] = 1.25 nM enzyme, 1 μM SAM, 0.3 μM H2A, 30° C., 120 min, averaged values, read-out: pIC50 Assay 1b (converted)

| Compound | IC50 (PRMT5-MEP50 enzyme [1]) [nM] | IC50 [2] [nM] | IC50 (PRMT5-MEP50 enzyme [3]; [4]) [nM] | also measured |
| --- | --- | --- | --- | --- |
| Cn1cnc2cc(CC[C@H]3C[C@@H](n4ccc5c(N)ncnc54)[C@H](O)[C@@H]3O)ccc21 [Compound 4] | 12.6 | 31.6 | – | – |
| Nc1nc2cc(CC[C@H]3C[C@@H](n4ccc5c(Cl)ncnc54)[C@H](O)[C@@H]3O)ccc2s1 [Compound 5] | 12.6 | 3980 | – | – |
| Nc1nc2cc(CC[C@H]3C[C@@H](n4ccc5c(N)ncnc54)[C@H](O)[C@@H]3O)ccc2s1 [Compound 6] | 2 | 15.8 | – | – |
| CNc1nc2cc(CC[C@H]3C[C@@H](n4ccc5c(N)ncnc54)[C@H](O)[C@@H]3O)ccc2s1 [Compound 7] | 6.31 | 25.1 | – | – |
| Cc1nc2cc(CC[C@H]3C[C@@H](n4ccc5c(N)ncnc54)[C@H](O)[C@@H]3O)ccn2c1C [Compound 11] | – | 3.98 | – | IC50 (PRMT5-MEP50 enzyme [3]): < 0.2 nM |
| Cc1cnc2cc(CC[C@H]3C[C@@H](n4ccc5c(N)ncnc54)[C@H](O)[C@@H]3O)c(F)cn12 [Compound 12] | – | 2 | 0.316 | – |
| Cc1cnc2cc(CC[C@H]3C[C@@H](n4cc(Br)c5c(N)ncnc54)[C@H](O)[C@@H]3O)ccn12 [Compound 15] | – | 6.31 | 1 | – |
| Nc1ncnc2c1ccn2[C@@H]1C[C@H](CCc2cc3ncccc3[nH]2)[C@@H](O)[C@H]1O [Compound 17] | 39.8 | 1000 | – | – |
| Nc1ncnc2c1ccn2[C@@H]1C[C@H](CCc2cc3ncccc3s2)[C@@H](O)[C@H]1O [Compound 18] | 39.8 | 126 | – | – |
| Nc1ncnc2c1ccn2[C@@H]1C[C@H](CCc2cc3ncccc3o2)[C@@H](O)[C@H]1O [Compound 19] | 1260 | 5010 | – | – |
| Cc1cnc2c(Cl)c(CC[C@H]3C[C@@H](n4ccc5c(N)ncnc54)[C@H](O)[C@@H]3O)ccn12 [Compound 21] | – | 15.8 | 3.98 | – |
| Nc1ncnc2c1ccn2[C@@H]1C[C@H](COc2ccn3ccnc3c2)[C@@H](O)[C@H]1O [Compound 24] | 31.6 | 1580 | – | – |
| Cn1cnc2cc(OC[C@H]3C[C@@H](n4ccc5c(N)ncnc54)[C@H](O)[C@@H]3O)ccc21 [Compound 25] | 126 | 2000 | – | – |
| Nc1ccc(CC[C@H]2C[C@@H](n3ccc4c(N)ncnc43)[C@H](O)[C@@H]2O)cn1 [Compound 27] | – | 6.31 | – | IC50 (PRMT5-MEP50 enzyme [3]): 5.01 nM |
| Nc1cccc(CC[C@H]2C[C@@H](n3ccc4c(N)ncnc43)[C@H](O)[C@@H]2O)n1 [Compound 28] | – | 631 | 158 | – |
| Nc1ccc(/C=C/[C@H]2C[C@@H](n3ccc4c(N)ncnc43)[C@H](O)[C@@H]2O)cn1 [Compound 30] | – | 501 | 63.1 | – |
| O=C(NC[C@H](O)CN1CCc2ccccc2C1)c1cc(NC2COC2)ncn1 [EPZ015666] | – | – | – | anti-tumour activity (MCL xenograft models): anti-tumour activity in multiple MCL xenograft models; PRMT5 inhibitor potency (PRMT5): sub-nanomolar potent |

Further lines, with some results ahead:

| IC50 (PRMT5-MEP50 enzyme [1]) [nM] | IC50 [2] [nM] | IC50 (PRMT5-MEP50 enzyme [3]; [4]) [nM] | Compound | also measured |
| --- | --- | --- | --- | --- |
| 0.794 | 1.26 | – | Cc1cnc2cc(CC[C@H]3C[C@@H](n4ccc5c(N)ncnc54)[C@H](O)[C@@H]3O)ccn12 [Compound 1] | – |
| – | 6.31 | 0.158 | Cc1cnc2cc(CC[C@H]3C[C@@H](n4ccc5c(N)ncnc54)[C@H](O)[C@@H]3O)c(Cl)cn12 [Compound 2] | – |
| 2 | 20 | – | Nc1ncnc2c1ccn2[C@@H]1C[C@H](CCc2ccn3ccnc3c2)[C@@H](O)[C@H]1O [Compound 3] | – |
| – | 25.1 | 2.51 | Nc1ncnc2c1ccn2[C@@H]1C[C@H](CCc2ccn3c(C4CC4)cnc3c2)[C@@H](O)[C@H]1O [Compound 8] | – |
| – | 63.1 | 3.98 | CNc1ncnc2c1ccn2[C@@H]1C[C@H](CCc2ccn3c(C)cnc3c2)[C@@H](O)[C@H]1O [Compound 9] | – |
| – | 200 | 10 | COc1ncnc2c1ccn2[C@@H]1C[C@H](CCc2ccn3c(C)cnc3c2)[C@@H](O)[C@H]1O [Compound 10] | – |
| 2 | 20 | 1.26 | Nc1ncnc2c1ccn2[C@@H]1C[C@H](CCc2ccn3c(Cl)cnc3c2)[C@@H](O)[C@H]1O [Compound 13] | – |
| 1.26 | 12.6 | 1.58 | Nc1ncnc2c1ccn2[C@@H]1C[C@H](CCc2ccn3c(Br)cnc3c2)[C@@H](O)[C@H]1O [Compound 14] | – |
| – | 2000 | 398 | Nc1cc(CC[C@H]2C[C@@H](n3ccc4c(N)ncnc43)[C@H](O)[C@@H]2O)ccn1 [Compound 29] | – |
